Data on 24 compounds can be found in US10428074B2, “Pyrrole heteroaryl ring derivative and method of use thereof” (Jiangsu Hengrui Medicine Co., Ltd., priority 2011, dated 2019).

In the first assay the test system is human erythroid leukemia cell line TF-1. The assay is described as follows: Proliferation inhibition assay on TF-1 cells mediated by IL-4. In kind it is cell-based. The note with it: 10 ng/mL IL-4, 72 hours. The text has this: The following in vitro assay is to determine the activity of the compounds of the present invention for inhibiting the proliferation of human erythroid leukemia cell line TF-1.
The activity is represented by the IC50 value, which can not only reflect the activity of a test compound for inhibiting JAK2 and JAK3 kinase, but can also reflect the selectivity of a test compound for JAK2 and JAK3 kinase.
The general procedures of the assay are given as follows: first, the TF-1 cells (purchased from ATCC, Catalog number: CRL 2003) were seeded in a 96-well cell culture plate at a suitable cell concentration (8000 cells/mL medium), and 10 ng/mL IL-4 (Invitrogen, Catalog Number: PHC0044) were added to each well. Then 10× serial concentration gradient of test compounds solutions (10000, 1000, 100, 10, 1 and 0.1 nM) were prepared, and then the 10× compound solutions prepared above were added to the 96-well cell culture plate containing IL-4. After the cell plates were cultured continuously for 72 hours, the activity of the test compounds for inhibiting the cell proliferation was determined by using a Cell Counting Kit-8 (purchased from Dojindo, Catalog Number: CK04). IC50 values were calculated from the data of the inhibition rates at various concentrations of the test compounds.
For `CN(c1ncnc2[nH]ccc12)[C@H]1C[C@@H]2CN(C(=O)CC#N)C[C@@H]2C1` [Example 8, 3-((3 aR,5S,6aS)-5-(Methyl(7H-pyrrolo[2,3-d]pyrimidin-4-yl)amino)hexahydrocyclopenta[c]pyrrol-2(1H)-yl)-3-oxopropanenitrile], the IC50 worked out at 530 nM. As to `CN(c1ncnc2[nH]c(F)cc12)[C@H]1C[C@@H]2CN(C(=O)CO)C[C@@H]2C1` [Example 129, 1-((3aR,5S,6aS)-5-((6-fluoro-7H-pyrrolo[2,3-d]pyrimidin-4-yl)(methyl)amino)hexahydrocyclopenta[c]pyrrol-2(1H)-yl)-2-hydroxyethanone], half-maximal inhibition (IC50) was put at 539 nM.

Compound `COc1nsc(NC(=O)N2CC[C@H]3CC(N(C)c4ncnc5[nH]ccc45)C[C@H]3C2)n1` (stereo partly drawn) [Example 38, (4aS,7aR)—N-(3-Methoxy-1,2,4-thiadiazol-5-yl)-6-(methyl(7H-pyrrolo[2,3-d]pyrimidin-4-yl)amino)hexahydro-1H-cyclopenta[c]pyridine-2(3H)-carboxamide] yielded an IC50 of 160 nM. `CN(c1ncnc2[nH]ccc12)[C@H]1C[C@@H]2CN(C(=O)OC(C)(C)C)C[C@@H]2C1` [Example 5, (3aR,5S,6aS)-tert-Butyl 5-(methyl(7H-pyrrolo[2,3-d]pyrimidin-4-yl)amino)hexahydro cyclopenta[c]pyrrole-2(1H)-carboxylate]: the IC50 worked out at 133 nM.

`Cc1noc(N2C[C@H]3C[C@H](N(C)c4ncnc5[nH]ccc45)C[C@H]3C2)n1` [Example 61, N-methyl-N-((3aR,5S,6aS)-2-(3-methyl-1,2,4-oxadiazol-5-yl)octahydrocyclopenta[c]pyrrol-5-yl)-7H-pyrrolo[2,3-d] pyrimidin-4-amine] yielded an IC50 of 507 nM.

As to `CN(c1ncnc2[nH]ccc12)[C@H]1C[C@@H]2CN(C(=O)Nc3nc(C4CC4)ns3)C[C@@H]2C1` [Example 125, (3aR,5S,6aS)-N-(3-cyclopropyl-1,2,4-thiadiazol-5-yl)-5-(methyl(7H-pyrrolo[2,3-d]pyrimidin-4-yl)amino) hexahydrocyclopenta [c]pyrrole-2(1H)-carboxamide], the midpoint of inhibition, the IC50, lay at 14 nM. Take `CN(c1ncnc2[nH]ccc12)[C@@H]1C[C@@H]2CN(C(=O)OC(C)(C)C)C[C@]2(C)C1` (racemic) [Example 1, (3aR,5R,6aS/3aS,5S,6aR)-tert-butyl-3a-methyl-5-(methyl(7H-pyrrolo[2,3-d]pyrimidin-4-yl)amino)hexahydro cyclopenta[c]pyrrole-2(1H)-carboxylate]: inhibition was half-maximal at 196 nM (IC50). As for `CN(c1ncnc2[nH]ccc12)C1C[C@@H]2CCN(C(=O)CC#N)C[C@@H]2C1` (stereo partly drawn) [Example 39, 3-((4aS,7aR)-6-(Methyl(7H-pyrrolo[2,3-d]pyrimidin-4-yl)amino)hexahydro-1H-cyclopenta[c]pyridin-2(3H,4H,4aH,5H,6H,7H,7aH)-yl)-3-oxopropanenitrile], the IC50 amounted to 419 nM.

The next assay deals with T cells. Nature of the assay: Proliferation inhibition assay on T cells (PBMC, anti-CD3, IL-2). In kind it is cell-based, human. The note with it: Homo sapiens, T-cell, 72 h, IL-2 10 ng/mL. The text has this:
The following in vitro assay is to determine the activity of the compounds of the present invention for inhibiting the proliferation of T cells.
The activity is represented by the IC50 value.
The general procedures of the assay are given as follows: first, the PBMC cell line (purchased from Shanghai Blood Center) was centrifuged, the supernatant was removed, and the cells counted. […] Then, the cells were washed 3 times, resuspended, diluted to 2×10^6/mL, and then mixed with recombinant human IL-2 (purchased from Peprotech, Catalog Number: 200-02) to a concentration of 10 ng/mL, and cultured for another 3 days. The cells were washed again 3 times, and diluted to 5×10^5/mL. 80 μL of the cells were seeded in each well of a 96-well cell culture plate. […] To he control wells, 10 μL culture medium were added. The plate was placed in an incubator. After incubating for 1 hr, negative control wells were mixed with 10 μL of culture medium, and the rest of the wells were mixed with IL-2 to a concentration of 10 ng/mL, and incubated continuously for 72 hours. […] IC50 values were calculated from the data of inhibition rates at various concentrations of the test compounds.
For the compound `CN(c1ncnc2[nH]ccc12)[C@H]1C[C@@H]2CN(S(=O)(=O)C3CC3)C[C@@H]2C1` [Example 15, N-((3aR,5S,6aS)-2-(Cyclopropylsulfonyl)octahydrocyclopenta[c]pyrrol-5-yl)-N-methyl-7H-pyrrolo[2,3-d]pyrimidin-4-amine], the half-maximal inhibitory concentration (IC50) was determined as 853 nM. Same read-out and setting: the value for `CN(c1ncnc2[nH]ccc12)[C@@H]1C[C@@H]2CN(CCC#N)C[C@@H]2C1` [Example 68, 3-((3aR,5R,6aS)-5-(methyl(7H-pyrrolo[2,3-d]pyrimidin-4-yl)amino)hexahydrocyclopenta[c]pyrrol-2(1H)-yl)propanenitrile] was 824 nM. The same measure, in the same setting: then `CN(c1ncnc2[nH]ccc12)[C@@H]1CC2CNC(=O)CC2C1` (stereo partly drawn) [Example 148, (6S)-6-(methyl(7H-pyrrolo[2,3-d]pyrimidin-4-yl)amino) hexahydro-1H-cyclopenta[c] pyridin-3(2H)-one], with 48 nM; and `COC(=O)CN1C[C@H]2C[C@H](N(C)c3ncnc4[nH]ccc34)C[C@H]2C1` [Example 24, Methyl 2-((3aR,5S,6aS)-5-(methyl(7H-pyrrolo[2,3-d]pyrimidin-4-yl)amino)hexahydrocyclopenta[c]pyrrol-2(1H)-yl)acetate], with 851 nM. On the same count and under the same terms, then `CN(c1ncnc2[nH]ccc12)[C@H]1C[C@@H]2CN(CC(F)(F)F)C[C@@H]2C1` [Example 56, N-methyl-N-((3aR,5S,6aS)-2-(2,2,2-trifluoroethyl)octahydrocyclopenta [c]pyrrol-5-yl)-7H-pyrrolo[2,3-d]pyrimidin-4-amine], with 119 nM; and `CN(c1ncnc2[nH]ccc12)[C@H]1C[C@H]2CNC(=O)C[C@H]2C1` [Example 40, (4aR,6R,7aR)-6-(Methyl(7H-pyrrolo[2,3-d]pyrimidin-4-yl)amino) hexahydro-1H-cyclopenta[c]pyridin-3(2H)-one], with 48 nM; and `CN(c1ncnc2[nH]ccc12)[C@H]1C[C@@H]2CN(CCC#N)C[C@@H]2C1` [Example 27, 3-((3 aR,5S,6aS)-5-(Methyl(7H-pyrrolo[2,3-d]pyrimidin-4-yl)amino)hexahydrocyclopenta[c]pyrrol-2(1H)-yl)propanenitrile], with 253 nM. `CN(c1ncnc2[nH]ccc12)[C@H]1C[C@@H]2CN(C(=O)CNS(C)(=O)=O)C[C@@H]2C1` [Example 21, N-(2-((3aR,5S,6aS)-5-(Methyl(7H-pyrrolo[2,3-d]pyrimidin-4-yl)amino)hexahydrocyclopenta[c]pyrrol-2(1H)-yl)-2-oxoethyl)methanesulfonamide] showed an IC50 of 892 nM.

The assay is the same for the next values; noted with them: Homo sapiens, T-cell; IL-2 10 ng/mL, 72 hours.
The compound `CN(c1ncnc2[nH]ccc12)[C@H]1C[C@@H]2CN(C(=O)CC#N)C[C@@H]2C1` [Example 8, 3-((3 aR,5S,6aS)-5-(Methyl(7H-pyrrolo[2,3-d]pyrimidin-4-yl)amino)hexahydrocyclopenta[c]pyrrol-2(1H)-yl)-3-oxopropanenitrile] showed an IC50 of 460 nM. Still for that read-out and setting: the value for `COc1nsc(NC(=O)N2CC[C@H]3CC(N(C)c4ncnc5[nH]ccc45)C[C@H]3C2)n1` (stereo partly drawn) [Example 38, (4aS,7aR)—N-(3-Methoxy-1,2,4-thiadiazol-5-yl)-6-(methyl(7H-pyrrolo[2,3-d]pyrimidin-4-yl)amino)hexahydro-1H-cyclopenta[c]pyridine-2(3H)-carboxamide] was 71 nM; that for `CN(c1ncnc2[nH]ccc12)[C@@H]1C[C@@H]2CN(C(=O)CO)C[C@@H]2C1` [Example 23, 2-Hydroxy-1-((3aR,5R,6aS)-5-(methyl(7H-pyrrolo[2,3-d]pyrimidin-4-yl)amino)hexahydrocyclopenta[c]pyrrol-2(1H)-yl)ethanone] was 543 nM; that for `CN(c1ncnc2[nH]ccc12)[C@@H]1C[C@@H]2CCN(C(=O)Nc3nncs3)C[C@@H]2C1` [Example 150, (4aS,6R,7aR)-6-(methyl(7H-pyrrolo[2,3-d]pyrimidin-4-yl)amino)-N-(1,3,4-thiadiazol-2-yl)hexahydro-1H-cyclopenta[c]pyridine-2(3H)-carboxamide] was 221 nM. Still for that read-out and setting: the value for `CN(c1ncnc2[nH]ccc12)[C@H]1C[C@@H]2CN(C(=O)CCC#N)C[C@@H]2C1` [Example 22, 4-((3aR,5S,6aS)-5-(Methyl(7H-pyrrolo[2,3-d]pyrimidin-4-yl)amino)hexahydrocyclopenta[c]pyrrol-2(1H)-yl)-4-oxobutanenitrile] was 281 nM; that for `CCc1nsc(NC(=O)N2C[C@H]3C[C@H](N(C)c4ncnc5[nH]ccc45)C[C@H]3C2)n1` [Example 121, (3aR,5S,6aS)-N-(3-ethyl-1,2,4-thiadiazol-5-yl)-5-(methyl(7H-pyrrolo[2,3-d]pyrimidin-4-yl)amino)hexahydrocyclopenta[c] pyrrole-2(1H)-carboxamide] was 24 nM. The same measure, in the same setting: then `CCC(=O)N1C[C@H]2C[C@H](N(C)c3ncnc4[nH]ccc34)C[C@H]2C1` [Example 84, 1-((3aR,5S,6aS)-5-(methyl(7H-pyrrolo[2,3-d]pyrimidin-4-yl)amino)hexahydrocyclopenta[c]pyrrol-2(1H)-yl)propan-1-one], with 509 nM; and `COc1cncc(NC(=O)N2C[C@H]3C[C@H](N(C)c4ncnc5[nH]ccc45)C[C@H]3C2)c1` [Example 109, (3aR,5S,6aS)-N-(5-methoxypyridin-3-yl)-5-(methyl(7H-pyrrolo[2,3-d]pyrimidin-4-yl)amino)hexahydrocyclopenta[c] pyrrole-2(1H)-carboxamide], with 762 nM.

`CN(c1ncnc2[nH]ccc12)[C@H]1C[C@@H]2CN(C(=O)C3CC3)C[C@@H]2C1` [Example 13, Cyclopropyl((3aR,5S,6aS)-5-(methyl(7H-pyrrolo[2,3-d]pyrimidin-4-yl)amino)hexahydrocyclopenta[c]pyrrol-2(1H)-yl)methanone] registered an IC50 of 754 nM.

The assay is the same for the next values; noted with them: IL-2 10 ng/mL, 72 hours; read-out: IC50(T cell).
In the case of `CN(c1ncnc2[nH]ccc12)[C@@H]1C[C@H]2CN(C(=O)CO)C[C@@]2(C)C1` (racemic) [Example 14, 2-Hydroxy-1-((3aS,5R,6aR/3aS,5R,6aR)-3a-methyl-5-(methyl(7H-pyrrolo[2,3-d]pyrimidin-4-yl)amino)hexahydrocyclopenta[c]pyrrol-2(1H)-yl)ethanone], the IC50 is 712 nM.

The term IC50 denotes the point on the concentration scale where inhibition reaches its midpoint.
